In series [1] the test system is MC-26 colon tumor cells. In words: Inhibition of MC-26 tumors in mice, 21 day lung colony count. The note with it: lung colonies day 21, 1×10^4 MC-26 cells i.v., control 55 ± 11.
Protocol: On day 0 female CDF1 mice are inoculated i.v. with 1×10^4 MC-26 colon tumor cells in a volume of 0.2 mL of saline per mouse. The mice are sacrificed 21 days later. The lungs are removed and fixed with WARF then allowed to stand for 30 minutes. The lobes are separated and the colonies are counted. Ten mice are in each treatment group and in the control group.
The mice in the control group were dosed orally with water (10 mL/Kg) on days 0, 1, 2, 3 and 4.
Series [2] deals with interferon. The series is described as follows: Interferon induction in mice. Format: in vivo. Particulars: mouse serum. Put shortly:
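Interferon titres expressed as α/β reference units/mL relative to mouse MU-1-IF standard, "<" denoting undetectable. Pooled serum came from mouse groups bled at 1, 2 or 4 h, frozen at −70° C, analysed like human-cell samples.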

In series [3] the test system is vesicular stomatitis virus (VSV). In words: microbe, parasite or virus in culture. Particulars: Vesicular stomatitis virus, read-out: VSV Yield Inhibition. Format: cell-based.
Series [4] relates to interferon-α. In words: Interferon-α induction in human cells, PBM. Format: cell-based. Particulars: 24 hours.
Series [5] deals with MC-26 colon tumor cells. The series is described as follows: Inhibition of MC-26 tumors in mice, 14 day lung colony count. It counts as in vivo. Particulars: lung colonies day 14, 4×10^4 MC-26 cells i.v., oral 30 mg/kg on days 3-7 and 10-14; control 385 ± 31. The method, then: The mice are sacrificed 14 days later. […] Five mice are in each treatment group and comparisons are made to controls. […] The mice in the control groups were dosed orally with saline (10 mL/kg) on days 3, 4, 5, 6, and 7, and with water (10 mL/kg) on days 10, 11, 12, 13, and 14.

The subject of series [6] is interferon-α. In words: Interferon-α induction in human cells, diluted whole blood. Format: cell-based. Particulars: 24 hours.
The test system of series [7] is interferon. In words: Interferon induction in guinea pigs (serum interferon titer). It counts as in vivo. The note with it: guinea pig serum 24 hours after initial oral dose. An excerpt: Female Hartley guinea pigs weighing 200 to 250 g are anesthetized with methoxyflurane (available under the […] from Pitman-Moore, Inc., Washington Crossing, N.J.), after which the vaginal area is swabbed with a dry cotton swab. The guinea pigs are then infected intravaginally with a cotton swab saturated with Herpes simplex virus Type II strain 333 (1×10^5 plaque forming units/mL). Guinea pigs are assigned to groups of 7 animals; one group for each treatment and one to serve as a control (vehicle treated). The compounds of the invention are formulated in water containing 5% Tween 80 (a polyoxyethylene sorbitan monooleate available from Aldrich Chemical Company, Inc., Milwaukee, Wis.). The, guinea pigs are treated orally once daily for four consecutive days starting 24 hours after infection. Twenty-four hours after the initial dose of test compound has been administered, blood is obtained from 3 guinea pigs from each treatment group by cardiac puncture of methoxyflurane anesthetized animals. Blood is pooled and allowed to clot at room temperature. After low speed centrifugation, serum is collected and stored at -70° C. until analysis. Interferon levels in the guinea pig serum are determined in a standard microtiter assay using transformed guinea pig cells (ATCC CRL 1405). The interferon assay is done in 96 well microtiter plates. Confluent monolayers of transformed guinea pig cells are treated with dilutions of guinea pig serum made with medium 199 (GIBCO, Grand Island, N.Y.). The cell and serum dilutions are incubated at 37° C. overnight. The following day, the medium and serum are removed and about 10 plaque forming units of Mengovirus are added to each well. Controls consist of wells that receive no guinea pig serum (virus positive control) and wells that receive no virus (virus negative control). Cells and virus are incubated for 2 to 3 days at 37° C. before quantifying for viral cytopathic effect. The viral cytopathic effect is quantified by staining with 0.05% crystal violet followed by spectrophotometric absorbance measurements. The titer of interferon in serum is expressed as units/mL and is the reciprocal of the highest dilution that protects cells from virus.

Series [8] relates to Herpes simplex virus Type II strain 333. The series is described as follows: Antiviral activity in guinea pigs infected with Herpes simplex virus Type II (lesion inhibition). Format: in vivo. Particulars: oral once daily for four days. An excerpt:
Female Hartley guinea pigs weighing 200 to 250 g are anesthetized with methoxyflurane (available under the […] from Pitman-Moore, Inc., Washington Crossing, N.J.), after which the vaginal area is swabbed with a dry cotton swab. The guinea pigs are then infected intravaginally with a cotton swab saturated with Herpes simplex virus Type II strain 333 (1×10^5 plaque forming units/mL). Guinea pigs are assigned to groups of 7 animals; one group for each treatment and one to serve as a control (vehicle treated). The compounds of the invention are formulated in water containing 5% Tween 80 (a polyoxyethylene sorbitan monooleate available from Aldrich Chemical Company, Inc., Milwaukee, Wis.). The, guinea pigs are treated orally once daily for four consecutive days starting 24 hours after infection. Antiviral activity is evaluated by comparing lesion development in compound-treated versus vehicle-treated guinea pigs. […] The maximum lesion score of each guinea pig is used to calculate the percentage lesion inhibition. The percentage lesion inhibition is calculated as follows: […]

Where only a bound is given, the exact number is not on record here.

What is called melting point is the temperature, or range, at which the solid turns liquid.

`CCOCc1nc2c(N)nc3ccccc3c2n1CC(C)(C)O` [Example 99, 4-Amino-α,α-dimethyl-2-ethoxymethyl-1H-imidazo[4,5-c]quinoline-1-ethanol]: the “Number of Colonies” value is recorded as 29 ± 4 in the series on MC-26 colon tumor cells [1] (oral 1 mg/Kg on days 0-4) and 17 ± 3 with MC-26 colon tumor cells [1] (oral 3 mg/Kg on days 0-4). Also, the “Interferon induction in mice” value with interferon [2] (oral 0.3 mg/kg, 1 hr) amounted to 1600 Reference Units/mL; with interferon [2] (oral 0.3 mg/kg, 2 hr), 3500 Reference Units/mL; in the series with interferon [2] (oral 0.3 mg/kg, 4 hr), 390 Reference Units/mL; in the series with interferon [2] (oral 1 mg/kg, 1 hr), 2200 Reference Units/mL; in the series on interferon [2] (oral 1 mg/kg, 2 hr), 5100 Reference Units/mL; in the series with interferon [2] (oral 1 mg/kg, 4 hr) it was 460 Reference Units/mL. Moreover, the “Interferon induction in mice” value with interferon [2] (oral 3 mg/kg, 1 hr) is listed as 1600 Reference Units/mL; in the series with interferon [2] (oral 3 mg/kg, 2 hr) it was 750 Reference Units/mL; in the series with interferon [2] (oral 3 mg/kg, 4 hr), “˜220 Reference Units/mL”; in the series with interferon [2] (oral 10 mg/kg, 1 hr), 2500 Reference Units/mL; with interferon [2] (oral 10 mg/kg, 2 hr), 4600 Reference Units/mL; with interferon [2] (oral 10 mg/kg, 4 hr) it was “˜220 Reference Units/mL”. The log reduction at 0.1 µg/mL in series [3] was 5. In addition, in series [3], the log reduction at 0.5 µg/mL amounted to 5. Also, the log reduction at 1 µg/mL in [3] turned out to be 5. Besides, the Interferon-α induction with interferon-α [4] (dose concentration 0.01 μg/mL) is 28 α Reference Units/mL; with interferon-α [4] (dose concentration 0.05 μg/mL) it was 316 α Reference Units/mL; with interferon-α [4] (dose concentration 0.10 μg/mL) it was 280 α Reference Units/mL; with interferon-α [4] (dose concentration 0.50 μg/mL), 790 α Reference Units/mL; in the series with interferon-α [4] (dose concentration 1.0 μg/mL), 790 α Reference Units/mL; with interferon-α [4] (dose concentration 5.0 μg/mL), 630 α Reference Units/mL.

On to `CC(C)Cn1c(CN=[N+]=[N-])nc2c(N)nc3ccccc3c21` [Example 11, 2-Azidomethyl-1-(2-methylpropyl)-1H-imidazo-[4,5-c]quinolin-4-amine], for which the “Number of Colonies” value in the series on MC-26 colon tumor cells [5] was 204 ± 28. Also, the “Interferon induction in mice” value in the series on interferon [2] (oral 1 mg/kg, 1 hr) stood at 280 Reference Units/mL; in the series with interferon [2] (oral 1 mg/kg, 2 hr), 1100 Reference Units/mL; in the series with interferon [2] (oral 1 mg/kg, 4 hr) it was 71 Reference Units/mL; with interferon [2] (oral 3 mg/kg, 1 hr) it was 490 Reference Units/mL; in the series on interferon [2] (oral 3 mg/kg, 2 hr) it was 1900 Reference Units/mL; with interferon [2] (oral 3 mg/kg, 4 hr) it was 30 Reference Units/mL. The “Interferon induction in mice” value in the series on interferon [2] (oral 10 mg/kg, 1 hr) was determined as 1100 Reference Units/mL; in the series on interferon [2] (oral 10 mg/kg, 2 hr), 2500 Reference Units/mL; in the series with interferon [2] (oral 10 mg/kg, 4 hr), 280 Reference Units/mL; with interferon [2] (oral 30 mg/kg, 1 hr), 850 Reference Units/mL; in the series with interferon [2] (oral 30 mg/kg, 2 hr), 2500 Reference Units/mL; in the series on interferon [2] (oral 30 mg/kg, 4 hr) it was 40 Reference Units/mL. Also, the Interferon-α induction in the series with interferon-α [6] (dose concentration 0.10 μg/mL) is given as 330 α Reference Units/mL; with interferon-α [6] (dose concentration 0.50 μg/mL) it was 330 α Reference Units/mL; in the series with interferon-α [6] (dose concentration 1.0 μg/mL) it was 250 α Reference Units/mL; in the series with interferon-α [6] (dose concentration 5.0 μg/mL), 140 α Reference Units/mL; in the series with interferon-α [4] (dose concentration 0.01 μg/mL), 330 α Reference Units/mL; in the series with interferon-α [4] (dose concentration 0.05 μg/mL), 330 α Reference Units/mL. In addition, the Interferon-α induction in the series on interferon-α [4] (dose concentration 0.10 μg/mL), in the series on interferon-α [4] (dose concentration 0.50 μg/mL), in the series with interferon-α [4] (dose concentration 1.0 μg/mL) and with interferon-α [4] (dose concentration 5.0 μg/mL) was 570 α Reference Units/mL each time. Moreover, the “Reference Units/mL (interferon in serum)” value in the series on interferon [7] (0.5 mg/kg) and in the series on interferon [7] (1 mg/kg) was >12,800 Units/mL throughout. The “% Lesion Inhibition” value is 50% in series [8] (dose 0.1 mg/kg), 100% in series [8] (dose 0.5 mg/kg) and 100% in series [8] (dose 1 mg/kg).

Compound `CC(C)Cn1c(C(O)c2ccccc2)nc2c(N)nc3ccccc3c21` (stereo not drawn) [Example 48, 4-Amino-1-(2-methylpropyl)-α-phenyl-1H-imidazo[4,5-c]quinoline-2-methanol] came in with a melting point of 125 to 140 °C. The “Interferon induction in mice” value in the series on interferon [2] (oral 0.3 mg/kg, 1 hr) is below 260 Reference Units/mL. Further, in the series on interferon [2] (oral 0.3 mg/kg, 2 hr), the “Interferon induction in mice” value is recorded as below 260 Reference Units/mL. For the same compound, the “Interferon induction in mice” value in the series on interferon [2] (oral 0.3 mg/kg, 4 hr) was below 260 Reference Units/mL. Further, the “Interferon induction in mice” value with interferon [2] (oral 1 mg/kg, 1 hr) was determined as 790 Reference Units/mL. For the same compound, the “Interferon induction in mice” value in the series on interferon [2] (oral 1 mg/kg, 2 hr) was 940 Reference Units/mL. In addition, the “Interferon induction in mice” value in the series on interferon [2] (oral 1 mg/kg, 4 hr) is on record as below 260 Reference Units/mL. Moreover, in the series on interferon [2] (oral 3 mg/kg, 1 hr), the “Interferon induction in mice” value came out at 1600 Reference Units/mL. Besides, in the series on interferon [2] (oral 3 mg/kg, 2 hr), the “Interferon induction in mice” value is reported as 1600 Reference Units/mL. Further, the “Interferon induction in mice” value with interferon [2] (oral 3 mg/kg, 4 hr) is on record as “˜510 Reference Units/mL”. The “Interferon induction in mice” value in the series with interferon [2] (oral 10 mg/kg, 1 hr) is 2000 Reference Units/mL. For the same compound, the “Interferon induction in mice” value in the series with interferon [2] (oral 10 mg/kg, 2 hr) amounted to 2000 Reference Units/mL. Also, in the series on interferon [2] (oral 10 mg/kg, 4 hr), the “Interferon induction in mice” value is given as “˜540 Reference Units/mL”. For the same compound, the Interferon-α induction in the series on interferon-α [4] (dose concentration 0.10 μg/mL) is recorded as 3100 α Reference Units/mL. The Interferon-α induction with interferon-α [4] (dose concentration 0.50 μg/mL) is listed as 840 α Reference Units/mL. The Interferon-α induction in the series with interferon-α [4] (dose concentration 1.0 μg/mL) is listed as 330 α Reference Units/mL. The Interferon-α induction in the series on interferon-α [4] (dose concentration 5.0 μg/mL) was 1300 α Reference Units/mL.

The record behind these values is patent US6465654B2, “Process for preparing 1-substituted, 2-substituted 1H-imidazo[4, 5-c]quinoline-4-amines” (3M Innovative Properties Company, priority 1991, dated 2002).
